Here are results for three molecules from US7666608B2, “Methods for determining drug responsiveness” (The Trustees of the University of Pennsylvania, priority 2002, dated 2010).

In one assay the test system is human SAA1 promoter. As to the kind of experiment: SAA1 promoter luciferase reporter construct in HepG2 cells. The class given is cell-based. The settings on record: HepG2, pGL2-SAA1pt. The source says:
The pGL2-SAA1pt construct was generated as follows. The proximal 3.1 kb of genomic sequence upstream of the human SAA1 transcription start site plus the full 37 bases of 5′UTR was amplified by polymerase chain reaction (PCR) from human genomic DNA (Roche Biomolecular) using forward and reverse primers, HSAA1PF (5′-GAATTCACGCGTTT-[…]-3′) (SEQ ID NO:10) and HSAAPR (5′-[…]-GCTGAGCTGCGGG-3′) (SEQ ID NO:11), that incorporate Mlu1 and Nco1 restriction sites, respectively. The product was digested with Mlu1 and Nco1 and directionally cloned into a pGL2 vector which had been modified to include an Nco1 site at the start of the luciferase coding sequence and contains the human SAA2 3′UTR (Longley et al. (1999) J. Immunol. 163:4537-45).
Constructs pGL2-SAA1[0.7] and pGL2-SAA1[0.25] containing 704 and 233 bases of promoter sequence respectively, were generated from pGL2-SAA1pt by PCR using the forward primers 5′-[…]-CAGCCTTGACC-3′ (SEQ ID NO:12) and 5′-GAATTCACGCGTGGTCT-CCTGCCTG-3′ (SEQ ID NO:13) respectively, and the reverse primer HSAAPR.
Human HepG2 hepatoma cells (ATCC) were cultured in DMEM containing 10% FCS, gentamycin, sodium pyruvate and non-essential amino acids (Gibco BRL). Cells were seeded into 24 well plates 24 hours prior to transfection using FuGENE (Roche Biomolecular) as described in Jensen et al. (2000) J. Immunol. 164:5277-86. Cells transfected with SAA promoter luciferase reporter constructs and renilla control plasmid, were incubated for 16 to 20 hours before replacement of culture medium with fresh medium alone or fresh medium containing 10 ng/ml cytokines and/or dexamethasone and/or RU486 (Mifepristone). IL-1 was purchased from Peprotech. IL-6 was obtained from AstraZeneca. Dexamethasone and RU486 were obtained from Sigma.
(§1) Cells were harvested at various times post-treatment, washed in PBS and resuspended in Passive Lysis Buffer (Promega, Madison, Wis.). […] Each treatment was carried out in triplicate and the mean ratio of luciferase to renilla activity and standard deviations were calculated. […]

In another assay the test system is human SAA2 promoter. As to the kind of experiment: SAA2 promoter luciferase reporter construct in HepG2 cells. Format: cell-based. The settings on record: HepG2, pGL2-SAA2pt, cytokines 10 ng/ml.
Source text: The pGL2-SAA2pt construct, which contains 1.2 kb of the human SAA2 promoter upstream of a luciferase reporter was generated as follows. A 1196 bp of the promoter region and 22 bp of the first exon of the human acute phase SAA2 gene was amplified by PCR with the introduction of MluI and XhoI restriction sites at the 5′ and 3′ ends respectively (5′ oligonucleotide: 5′ […]-TACTTCCT-′3′ (SEQ ID NO: 8); 3′ oligonucleotide: 5′-[…]-[…]-3′ (SEQ ID NO:9). The PCR product was subsequently cloned into the multiple-cloning site of the pGL2-Basic vector (Promega, Madison, Wis., USA) which is located upstream of a luciferase reporter gene.
Constructs pGL2-SAA2[0.7] and pGL2-SAA2[0.25] containing 700 and 239 bases of promoter sequence respectively, were generated from pGL2-SAA2pt by PCR using the forward primers 5′-[…]-3′ (SEQ ID NO:14) and 5′-[…]-3′ (SEQ ID NO:15) respectively, and the reverse primer HSAAPR.
Human HepG2 hepatoma cells (ATCC) were cultured in DMEM containing 10% FCS, gentamycin, sodium pyruvate and non-essential amino acids (Gibco BRL). […]
as §1

Turning to `CC#C[C@]1(O)CC[C@H]2[C@@H]3CCC4=CC(=O)CCC4=C3[C@@H](c3ccc(N(C)C)cc3)C[C@@]21C` [RU486, Mifepristone], in the assay on human SAA1 promoter (10 nM RU486 alone with IL-1 plus IL-6, 4 h), the “effect on cytokine driven SAA1 promoter transcriptional activity” value is given as “no measurable effect”. Moreover, the “block of dexamethasone enhancement of cytokine induction of the SAA1 promoter” value in the assay on human SAA1 promoter (10 nM RU486 with 100 nM dexamethasone and IL-1 plus IL-6, 4 h) is listed as “completely blocked”.

`C[C@@H]1C[C@H]2[C@@H]3CCC4=CC(=O)C=C[C@]4(C)[C@@]3(F)[C@@H](O)C[C@]2(C)[C@@]1(O)C(=O)CO` [dexamethasone]: the “effect on the SAA1 promoter” value in the assay with human SAA1 promoter (dexamethasone alone (50 nM), 3, 6, 9, 24 h) is listed as “no effect”.

In the case of “IL-6: cytokine, obtained from AstraZeneca”, in the assay with human SAA2 promoter (3, 6, 9, 24 h), the “kinetic profile of cytokine driven SAA2 promoter readout” value was “highest at 3 hours and decreased through 24 hours”. Further, the “induction of the SAA2 promoter” value in the assay on human SAA2 promoter (3-24 h) is “moderately induced”.
